Results taken from US8841281B2, “Transition metal complexes of amino acids and related ligands and their use as catalysts, anti-microbials, and anti-cancer agents” (Virginia Tech Intellectual Properties, Inc., priority 2011, dated 2014).

System: MRSA
Test: Activity against MRSA strains (Table VIIIB, compounds used alone)
Type: cell-based, Staphylococcus aureus
Conditions: ligand compound used alone, not complexed

Row | Compound | activity against MRSA when used alone
1 | CN(C)CCN [N,N-dimethylethylenediamine, reference compound] | not active
2 | CNCCN [N-methylethylenediamine, reference compound] | not active
3 | CC[C@@H](CO)NCCN[C@@H](CC)CO [ethambutol, reference compound] | not active
4 | NCCN [ethylenediamine, reference compound] | not active
5 | Napthalenediamine [reference compound] | active

System: Mycobacterium smegmatis strain mc^2155
Test: not given
Type: cell-based
Conditions: not given

Row | Compound | Minimal Inhibitory Concentration (MIC) M. smegmatis [µg/mL]
6 | Cp*IrCl (D-Proline) [1 (D-pro)] | >250
7 | Cp*IrCl (Glycine) [1 (L-gly)] | 61
8 | Cp*IrCl (L-Phenylglycine) [1 (L-phengly)] | 5
9 | Cp*IrCl (L-Trans-4-Hydroxyproline) [1 (L-hyp)] | >250
10 | Cp*IrCl (N-methyl-Glycine) [1 (L-N-methylgly)] | >250
11 | [Ir(COD)(N,N-dimethylethylenediamine)]Cl [3 (N,N-methyl en)] | >250
12 | [Ir(COD)(N-methylethylenediamine)]Cl [3 (N-methyl en)] | >250
13 | [Ir(COD)(ethambutol)]Cl [3 (EMB)] | 61
14 | [Ir(COD)(ethylenediamine)]Cl [3 (en)] | 125

System: Mycobacterium bovis strain BCG
Test: not given
Type: cell-based
Conditions: not given

Row | Compound | Minimal Inhibitory Concentration (MIC) M. bovis [µg/mL]
15 | Cp*IrCl (D-Proline) [1 (D-pro)] | >250
16 | Cp*IrCl (L-Phenylglycine) [1 (L-phengly)] | 10
17 | [Ir(COD)(N,N-dimethylethylenediamine)]Cl [3 (N,N-methyl en)] | >250
18 | [Ir(COD)(N-methylethylenediamine)]Cl [3 (N-methyl en)] | >250

System: gram positive MRSA
Test: not given
Conditions: not given

Row | Compound | MIC [µg/mL]
19 | [Ir(COD)(N,N-dimethylethylenediamine)]Cl [3 (N,N-methyl en)] | >250
20 | [Ir(COD)(N-methylethylenediamine)]Cl [3 (N-methyl en)] | 16.2

Same assay, conditions: gram positive MRSA

Row | Compound | MIC [µg/mL]
21 | [Ir(COD)(ethambutol)]Cl [3 (EMB)] | 8.1
22 | [Ir(COD)(ethylenediamine)]Cl [3 (en)] | 8.1

System: Mycobacterium avium strain A5
Test: not given
Conditions: not given

Row | Compound | Minimal Inhibitory Concentration (MIC) M. avium [µg/mL]
23 | Cp*IrCl (D-Proline) [1 (D-pro)] | >250
24 | Cp*IrCl (Glycine) [1 (L-gly)] | >250
25 | Cp*IrCl (L-Phenylglycine) [1 (L-phengly)] | >250
26 | Cp*IrCl (L-Trans-4-Hydroxyproline) [1 (L-hyp)] | >250
27 | Cp*IrCl (N-methyl-Glycine) [1 (L-N-methylgly)] | >250
28 | [Ir(COD)(N,N-dimethylethylenediamine)]Cl [3 (N,N-methyl en)] | >250
29 | [Ir(COD)(N-methylethylenediamine)]Cl [3 (N-methyl en)] | >250
30 | [Ir(COD)(ethambutol)]Cl [3 (EMB)] | >250
31 | [Ir(COD)(ethylenediamine)]Cl [3 (en)] | >250

System: Mycobacterium intracellulare
Test: not given
Conditions: not given

Row | Compound | Minimal Inhibitory Concentration (MIC) M. intracellulare [µg/mL]
32 | Cp*IrCl (D-Proline) [1 (D-pro)] | >250
33 | Cp*IrCl (Glycine) [1 (L-gly)] | >250
34 | Cp*IrCl (L-Phenylglycine) [1 (L-phengly)] | 15
35 | [Ir(COD)(N,N-dimethylethylenediamine)]Cl [3 (N,N-methyl en)] | >250
36 | [Ir(COD)(N-methylethylenediamine)]Cl [3 (N-methyl en)] | >250
37 | [Ir(COD)(ethambutol)]Cl [3 (EMB)] | >250
38 | [Ir(COD)(ethylenediamine)]Cl [3 (en)] | 61

System: Mycobacterium abscessus strain AAy-P-1
Test: not given
Conditions: not given

Row | Compound | Minimal Inhibitory Concentration (MIC) M. abscessus [µg/mL]
39 | Cp*IrCl (D-Proline) [1 (D-pro)] | >250
40 | Cp*IrCl (Glycine) [1 (L-gly)] | 125
41 | Cp*IrCl (L-Phenylglycine) [1 (L-phengly)] | 31
42 | [Ir(COD)(N,N-dimethylethylenediamine)]Cl [3 (N,N-methyl en)] | >250
43 | [Ir(COD)(N-methylethylenediamine)]Cl [3 (N-methyl en)] | >250
44 | [Ir(COD)(ethambutol)]Cl [3 (EMB)] | 61
45 | [Ir(COD)(ethylenediamine)]Cl [3 (en)] | 61

System: Mycobacterium marinum ATCC 927
Test: not given
Conditions: not given

Row | Compound | Minimal Inhibitory Concentration (MIC) M. marinum [µg/mL]
46 | Cp*IrCl (D-Proline) [1 (D-pro)] | >250
47 | Cp*IrCl (Glycine) [1 (L-gly)] | >250
48 | Cp*IrCl (L-Phenylglycine) [1 (L-phengly)] | >250
49 | [Ir(COD)(N,N-dimethylethylenediamine)]Cl [3 (N,N-methyl en)] | >250
50 | [Ir(COD)(N-methylethylenediamine)]Cl [3 (N-methyl en)] | >250
51 | [Ir(COD)(ethambutol)]Cl [3 (EMB)] | >250
52 | [Ir(COD)(ethylenediamine)]Cl [3 (en)] | >251

System: Mycobacterium chelonae strain EO-P-1
Test: not given
Conditions: not given

Row | Compound | Minimal Inhibitory Concentration (MIC) M. chelonae [µg/mL]
53 | Cp*IrCl (D-Proline) [1 (D-pro)] | >250
54 | Cp*IrCl (Glycine) [1 (L-gly)] | 125
55 | Cp*IrCl (L-Phenylglycine) [1 (L-phengly)] | 10
56 | [Ir(COD)(N,N-dimethylethylenediamine)]Cl [3 (N,N-methyl en)] | >250
57 | [Ir(COD)(N-methylethylenediamine)]Cl [3 (N-methyl en)] | >250
58 | [Ir(COD)(ethambutol)]Cl [3 (EMB)] | 61
59 | [Ir(COD)(ethylenediamine)]Cl [3 (en)] | 61

System: mycobacteria, Staphylococcus aureus and methicillin-resistant S. aureus (MRSA)
Test: not given
Conditions: among Ir, Ru, Rh L-α-amino acid complexes

Row | Compound | relative anti-mycobacterial / antibiotic activity
60 | Cp*IrCl (L-Phenylalanine) [1 (L-phe)] | highest activity
61 | Cp*IrCl (L-Phenylglycine) [1 (L-phengly)] | highest activity
